Measured values: EPA's ToxRefDB 2

Legend:
[1] = test system: dog; details: Chronic toxicity, beagle, Oral, Feed, dose end: 52 week, group: systemic
[2] = test system: mouse; details: Subchronic oral toxicity in rodents, cd1, Feed, dose end: 90 day, group: systemic
[3] = test system: rat; details: Subchronic oral toxicity in rodents, sprague dawley, Feed, dose end: 90 day, group: systemic
[4] = test system: mouse; details: Carcinogenicity; cd1; Oral; Feed; dose end: 80 week; group: systemic; systemic / in life observation / body weight / body weight + systemic / in life observation / body weight / body weight gain + systemic / …
[5] = test system: rat; details: Combined chronic toxicity/carcinogenicity, sprague dawley, Oral, Feed, dose end: 2 year, group: systemic
[6] = test system: rat; details: Multigenerational reproductive toxicity study, sprague dawley, Oral, Feed, dose end: 2 generation
[7] = test system: rat; details: Multigenerational reproductive toxicity study, sprague dawley, Oral, Feed, dose end: 2 generation; remark: listed apart in the source
[8] = test system: mouse; details: Subchronic oral toxicity in rodents, cd1, Feed, dose end: 13 week, group: systemic
[9] = test system: rat; details: Combined chronic toxicity/carcinogenicity, sprague dawley, Oral, Feed, dose end: 104 week, group: systemic
[10] = test system: rat; details: Subchronic oral toxicity in rodents, sprague dawley, Feed, dose end: 13 week, group: systemic, systemic / clinical chemistry / globulins / globulins + systemic / clinical chemistry / protein / protein + systemic / organ weight / liver…
[11] = test system: rabbit; details: Prenatal developmental toxicity study, other, Oral, Gavage/Intubation, dose end: 18 GD
[12] = test system: dog; details: Subchronic oral toxicity in nonrodent, beagle, Feed, dose end: 13 week, group: systemic
[13] = systemic / in life observation / food consumption / food consumption
[14] = systemic / in life observation / body weight / body weight + systemic / in life observation / body weight / body weight gain + systemic / in…
[15] = systemic / in life observation / body weight / body weight + systemic / in life observation / body weight / body weight gain + systemic / …
[16] = systemic / organ weight / kidney / absolute + systemic / organ weight / kidney / relative to brain weight
[17] = systemic / organ weight / kidney / absolute + systemic / organ weight / kidney / relative to brain weight + systemic / pathology microscopic…
[18] = group: offspring, systemic / in life observation / body weight / offspring (pup) weight
[19] = group: offspring, systemic / in life observation / body weight / offspring (pup) weight + systemic / in life observation / body weight / offspring (pup) …
[20] = group: parental, systemic / in life observation / body weight / body weight + systemic / in life observation / body weight / body weight gain + systemic / in…
[21] = group: offspring, developmental / offspring survival late / viability index / viability index + systemic / in life observation / body weight / offspring (pup…
[22] = group: parental, systemic / organ weight / adrenal gland / relative to body weight + systemic / organ weight / adrenal gland / relative to brain weight
[23] = group: parental, systemic / organ weight / adrenal gland / relative to body weight + systemic / organ weight / adrenal gland / relative to brain weight + …
[24] = systemic / clinical chemistry / alkaline phosphatase (alp/alk) / alkaline phosphatase (alp/alk) + systemic / organ weight / liver / absolute…
[25] = systemic / in life observation / clinical signs / tooth-malocclusion
[26] = group: developmental, developmental / developmental malformation / bone / full supernumerary
[27] = group: maternal, systemic / in life observation / body weight / body weight gain + systemic / in life observation / food consumption / food consumption + …
[28] = systemic / clinical chemistry / triglycerides / triglycerides + systemic / in life observation / clinical signs / mucoid stools + systemic…
[29] = systemic / in life observation / clinical signs / vomiting

Compound `CCCOC(=O)c1ccc(C(=O)OCCC)nc1` [Dipropyl pyridine-2,5-dicarboxylate] has an LOAEL ([1]; systemic / in life observation / body weight / body weight gain) of 148 mg/kg/day, an NOAEL ([1]; systemic / in life observation / body weight / body weight gain + systemic / in life observation / body weight / body weight + systemic / in…) of 34.3 mg/kg/day and an LEL [1, 13] of 8.12 mg/kg/day. The NEL [1, 13] was < 8.12 mg/kg/day, the LOAEL [2, 14] was 2000 mg/kg/day and the NOAEL [2, 14] was 1000 mg/kg/day. For the same compound, the LEL ([2]; systemic / organ weight / kidney / absolute + systemic / organ weight / kidney / relative to body weight) was 500 mg/kg/day, the NEL ([2]; systemic / organ weight / kidney / relative to body weight + systemic / organ weight / liver / relative to body weight) was 250 mg/kg/day and the LEL ([3]; systemic / hematology / hematocrit (hct) / hematocrit (hct)) was 500 mg/kg/day. The LOAEL [3, 15] was 1000 mg/kg/day, the NEL [3, 15] was 250 mg/kg/day and the NOAEL [3, 15] was 500 mg/kg/day. It also gave an LEL [4] of 494 mg/kg/day, an LOAEL [4] of 494 mg/kg/day and an NEL [4] of 124 mg/kg/day. It also gave an NOAEL [4] of 124 mg/kg/day, an LEL [5, 16] of 250 mg/kg/day and an LOAEL [5, 16] of 250 mg/kg/day. For the same compound, the NEL [5, 17] was 65 mg/kg/day, the NOAEL [5, 17] was 65 mg/kg/day and the LEL [6, 18] was 289 mg/kg/day. It also gave an LOAEL [6, 18] of 289 mg/kg/day, an NEL [6, 19] of 72.9 mg/kg/day and an NOAEL [6, 19] of 72.9 mg/kg/day. The LOAEL [6, 20] was 1020 mg/kg/day, the NEL [6, 20] was 66 mg/kg/day and the NOAEL [6, 20] was 255 mg/kg/day. It also gave an LEL ([6]; group: parental, systemic / in life observation / food consumption / food consumption) of 255 mg/kg/day.
`CCOc1cc(C(C)(C)C)ccc1C1COC(c2c(F)cccc2F)=N1` (stereo not given) [Etoxazole] gave an LOAEL ([7]; group: offspring, developmental / offspring survival late / viability index / viability index) of 157 mg/kg/day, an LEL [7, 21] of 157 mg/kg/day and an NEL [7, 21] of 31.6 mg/kg/day. For the same compound, the NOAEL [7, 21] was 31.6 mg/kg/day, the NEL [7, 22] was 33.4 mg/kg/day and the NOAEL [7, 22] was 33.4 mg/kg/day. It also gave an LEL [7, 23] of 139 mg/kg/day, an LOAEL [7, 23] of 139 mg/kg/day and an LOAEL [8, 24] of 878 mg/kg/day. It also gave an NEL [8, 24] of 55.1 mg/kg/day, an NOAEL [8, 24] of 214 mg/kg/day and an LEL ([8]; systemic / organ weight / liver / absolute + systemic / organ weight / liver / relative to body weight + systemic / pathology microscopic / …) of 214 mg/kg/day. For the same compound, the LOAEL ([9]; systemic / in life observation / clinical signs / tooth nos) was 187 mg/kg/day, the NOAEL ([9]; systemic / in life observation / clinical signs / tooth nos + systemic / hematology / blood clotting / blood clotting - activated partial …) was 1.83 mg/kg/day and the LEL [9, 25] was 2.07 mg/kg/day. The NEL [9, 25] was < 2.07 mg/kg/day, the LEL [10] was 300 mg/kg/day and the LOAEL [10] was 300 mg/kg/day. For the same compound, the NEL [10] was < 300 mg/kg/day, the NOAEL [10] was < 300 mg/kg/day and the LEL [11, 26] was 1000 mg/kg/day. The LOAEL [11, 26] was 1000 mg/kg/day, the NEL [11, 26] was 200 mg/kg/day and the NOAEL [11, 26] was 200 mg/kg/day. For the same compound, the LEL [11, 27] was 1000 mg/kg/day, the LOAEL [11, 27] was 1000 mg/kg/day and the NEL [11, 27] was 200 mg/kg/day. For the same compound, the NOAEL [11, 27] was 200 mg/kg/day, the LOAEL [12, 28] was 53.7 mg/kg/day and the NOAEL [12, 28] was 5.33 mg/kg/day. The LEL [12, 29] was 5.33 mg/kg/day and the NEL [12, 29] was < 5.33 mg/kg/day.
